Source: PMC10035947, “Development of novel anilinoquinazoline-based carboxylic acids as non-classical carbonic anhydrase IX and XII inhibitors” (Journal of Enzyme Inhibition and Medicinal Chemistry, 2023)

How the values were obtained:
hCA I = biological target: T1, hCA I (Homo sapiens, UniProt P00915); experiment: stopped flow CO2 hydrase assay; type: biochemical; conditions: mean from 3 assays
T1 construct: made in house
Summary of the method: (§1)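 Recombinant enzymes assayed by stopped-flow CO2 hydration using 0.2 mM phenol red at 557 nm in 20 mM Hepes pH 7.5 with 20 mM Na2SO4, CO2 1.7–17 mM. Inhibitor and enzyme preincubated 15 min at room temperature.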

hCA IX = biological target: T2, hCA IX (Homo sapiens, UniProt Q16790); experiment: stopped flow CO2 hydrase assay; type: biochemical; conditions: for Selectivity ratio I/IX: KI hCA I / KI hCA IX; for Selectivity ratio II/IX: KI hCA II / KI hCA IX; for Ki: mean from 3 assays
T2 construct: made in house
Summary of the method: as §1

hCA XII = biological target: T3, hCA XII (Homo sapiens, UniProt O43570); experiment: stopped flow CO2 hydrase assay; type: biochemical; conditions: for Selectivity ratio I/XII: KI hCA I / KI hCA XII; for Selectivity ratio II/XII: KI hCA II / KI hCA XII; for Ki: mean from 3 assays
T3 construct: made in house
T3 sequence (O43570 25-354): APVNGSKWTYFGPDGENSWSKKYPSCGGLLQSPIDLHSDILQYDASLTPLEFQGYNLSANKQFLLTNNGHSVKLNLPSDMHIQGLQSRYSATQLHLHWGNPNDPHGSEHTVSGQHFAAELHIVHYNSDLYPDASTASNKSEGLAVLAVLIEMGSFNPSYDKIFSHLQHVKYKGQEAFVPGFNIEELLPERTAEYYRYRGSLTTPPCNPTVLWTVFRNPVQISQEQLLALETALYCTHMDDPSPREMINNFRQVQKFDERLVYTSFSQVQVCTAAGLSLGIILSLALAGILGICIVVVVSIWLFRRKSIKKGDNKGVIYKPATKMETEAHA
Summary of the method: as §1

CCRF-CEM = experiment: NCI SRB assay; type: cell-based, human; conditions: for GI%: 10 μM; for Growth Percent: 1.00E-5 Molar
K-562 = experiment: NCI SRB assay; type: cell-based, human; conditions: for GI%: K-562, 10 μM; for Growth Percent: K-562, 1.00E-5 Molar
MOLT-4 = experiment: NCI SRB assay; type: cell-based, human; conditions: for GI%: MOLT-4, 10 μM; for Growth Percent: MOLT-4, 1.00E-5 Molar
A549/ATCC = experiment: NCI SRB assay; type: cell-based, human; conditions: A549/ATCC; for GI%: 10 μM; for Growth Percent: 1.00E-5 Molar
EKVX = experiment: NCI SRB assay; type: cell-based, human; conditions: for GI%: 10 μM; for Growth Percent: 1.00E-5 Molar
NCI-H226 = experiment: NCI SRB assay; type: cell-based, human; conditions: for GI%: NCI-H226, 10 μM; for Growth Percent: NCI-H226, 1.00E-5 Molar
NCI-H522 = experiment: NCI SRB assay; type: cell-based, human; conditions: for GI%: NCI-H522, 10 μM; for Growth Percent: NCI-H522, 1.00E-5 Molar
HCT-116 = experiment: NCI SRB assay; type: cell-based, human; conditions: for GI%: HCT-116, 10 μM; for Growth Percent: HCT-116, 1.00E-5 Molar
SW-620 = experiment: NCI SRB assay; type: cell-based, human; conditions: for GI%: SW-620, 10 μM; for Growth Percent: SW-620, 1.00E-5 Molar
SF-295 = experiment: NCI SRB assay; type: cell-based, human; conditions: for GI%: SF-295, 10 μM; for Growth Percent: SF-295, 1.00E-5 Molar
LOX IMVI = experiment: NCI SRB assay; type: cell-based, human; conditions: for GI%: 10 μM; for Growth Percent: 1.00E-5 Molar
MALME-3M = experiment: NCI SRB assay; type: cell-based, human; conditions: for GI%: 10 μM; for Growth Percent: 1.00E-5 Molar
M14 = experiment: NCI SRB assay; type: cell-based, human; conditions: for GI%: M14, 10 μM; for Growth Percent: M14, 1.00E-5 Molar
SK-MEL-5 = experiment: NCI SRB assay; type: cell-based, human; conditions: for GI%: SK-MEL-5, 10 μM; for Growth Percent: SK-MEL-5, 1.00E-5 Molar
OVCAR-3 = experiment: NCI SRB assay; type: cell-based, human; conditions: for GI%: OVCAR-3, 10 μM; for Growth Percent: OVCAR-3, 1.00E-5 Molar
OVCAR-5 = experiment: NCI SRB assay; type: cell-based, human; conditions: for GI%: OVCAR-5, 10 μM; for Growth Percent: OVCAR-5, 1.00E-5 Molar
OVCAR-8 = experiment: NCI SRB assay; type: cell-based, human; conditions: for GI%: OVCAR-8, 10 μM; for Growth Percent: OVCAR-8, 1.00E-5 Molar
NCI/ADR-RES = experiment: NCI SRB assay; type: cell-based, human; conditions: for GI%: 10 μM; for Growth Percent: 1.00E-5 Molar
786-0 = experiment: NCI SRB assay; type: cell-based, human; conditions: for GI%: 786-0, 10 μM; for Growth Percent: 786-0, 1.00E-5 Molar
A498 = experiment: NCI SRB assay; type: cell-based, human; conditions: for GI%: A498, 10 μM; for Growth Percent: A498, 1.00E-5 Molar
SN12C = experiment: NCI SRB assay; type: cell-based, human; conditions: SN12C; for GI%: 10 μM; for Growth Percent: 1.00E-5 Molar
DU-145 = experiment: NCI SRB assay; type: cell-based, human; conditions: for GI%: DU-145, 10 μM; for Growth Percent: DU-145, 1.00E-5 Molar
MCF7 = experiment: NCI SRB assay; type: cell-based, human; conditions: for GI%: MCF7, 10 μM; for Growth Percent: MCF7, 1.00E-5 Molar
BT-549 = experiment: NCI SRB assay; type: cell-based, human; conditions: for GI%: BT-549, 10 μM; for Growth Percent: BT-549, 1.00E-5 Molar
MDA-MB-468 = experiment: NCI SRB assay; type: cell-based, human; conditions: for GI%: MDA-MB-468, 10 μM; for Growth Percent: MDA-MB-468, 1.00E-5 Molar

T1 sequence (P00915 whole entry): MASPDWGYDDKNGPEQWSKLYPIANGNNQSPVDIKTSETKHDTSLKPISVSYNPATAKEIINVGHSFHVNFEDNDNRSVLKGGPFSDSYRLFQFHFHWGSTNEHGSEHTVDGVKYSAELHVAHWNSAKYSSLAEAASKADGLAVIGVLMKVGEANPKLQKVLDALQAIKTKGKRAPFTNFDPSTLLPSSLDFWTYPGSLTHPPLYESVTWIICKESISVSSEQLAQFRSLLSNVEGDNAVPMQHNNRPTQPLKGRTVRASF

Cc1cccc(-c2nc(Nc3ccc(C(=O)O)cc3)c3ccccc3n2)c1 [8a, 4-((2-(m-Tolyl)quinazolin-4-yl)amino)benzoic acid]
Ki (hCA I): 87.7 µM
Selectivity ratio I/IX (hCA IX): 20.4
Selectivity ratio II/IX (hCA IX): 2.16
Ki (hCA IX): 4.3 µM
Selectivity ratio I/XII (hCA XII): 23.1
Selectivity ratio II/XII (hCA XII): 2.45
Ki (hCA XII): 3.8 µM
GI% (CCRF-CEM): 25%
Growth Percent (CCRF-CEM): 74.58%
GI% (K-562): – (Only GI% higher than 20% are shown)
Growth Percent (K-562): 80.44%
GI% (MOLT-4): 22%
Growth Percent (MOLT-4): 78.39%
GI% (A549/ATCC): 22%
Growth Percent (A549/ATCC): 78.30%
GI% (EKVX): – (Only GI% higher than 20% are shown)
Growth Percent (EKVX): 82.93%
GI% (NCI-H226): 52%
Growth Percent (NCI-H226): 47.62%
GI% (NCI-H522): – (Only GI% higher than 20% are shown)
Growth Percent (NCI-H522): 87.55%
GI% (HCT-116): – (Only GI% higher than 20% are shown)
Growth Percent (HCT-116): 81.80%
GI% (SW-620): – (Only GI% higher than 20% are shown)
Growth Percent (SW-620): 84.27%
GI% (SF-295): 36%
Growth Percent (SF-295): 63.92%
GI% (LOX IMVI): 29%
Growth Percent (LOX IMVI): 71.49%
GI% (MALME-3M): – (Only GI% higher than 20% are shown)
Growth Percent (MALME-3M): 110.61%
GI% (M14): – (Only GI% higher than 20% are shown)
Growth Percent (M14): 88.98%
GI% (SK-MEL-5): 29%
Growth Percent (SK-MEL-5): 71.03%
GI% (OVCAR-3): – (Only GI% higher than 20% are shown)
Growth Percent (OVCAR-3): 82.69%
GI% (OVCAR-5): – (Only GI% higher than 20% are shown)
Growth Percent (OVCAR-5): 133.93%
GI% (OVCAR-8): – (Only GI% higher than 20% are shown)
Growth Percent (OVCAR-8): 82.44%
GI% (NCI/ADR-RES): – (Only GI% higher than 20% are shown)
Growth Percent (NCI/ADR-RES): 84.58%
GI% (786-0): 29%
Growth Percent (786-0): 70.77%
GI% (A498): 54%
Growth Percent (A498): 45.68%
GI% (SN12C): 42%
Growth Percent (SN12C): 58.07%
GI% (DU-145): – (Only GI% higher than 20% are shown)
Growth Percent (DU-145): 87.83%
GI% (MCF7): – (Only GI% higher than 20% are shown)
Growth Percent (MCF7): 88.63%
GI% (BT-549): 34%
Growth Percent (BT-549): 66.04%
GI% (MDA-MB-468): – (Only GI% higher than 20% are shown)
Growth Percent (MDA-MB-468): 113.23%

Cc1ccc(-c2nc(Nc3ccc(C(=O)O)cc3)c3ccccc3n2)cc1 [8b, 4-((2-(p-Tolyl)quinazolin-4-yl)amino)benzoic acid]
Ki (hCA I): 73.2 µM
Selectivity ratio I/IX (hCA IX): 45.8
Selectivity ratio II/IX (hCA IX): 2.44
Ki (hCA IX): 1.6 µM
Selectivity ratio I/XII (hCA XII): 174.3
Selectivity ratio II/XII (hCA XII): 9.29
Ki (hCA XII): 0.42 µM
GI% (CCRF-CEM): 28%
Growth Percent (CCRF-CEM): 71.96%
GI% (K-562): 23%
Growth Percent (K-562): 76.80%
GI% (MOLT-4): 24%
Growth Percent (MOLT-4): 76.42%
GI% (A549/ATCC): – (Only GI% higher than 20% are shown)
Growth Percent (A549/ATCC): 95.03%
GI% (EKVX): 28%
Growth Percent (EKVX): 72.41%
GI% (NCI-H226): 62%
Growth Percent (NCI-H226): 37.77%
GI% (NCI-H522): – (Only GI% higher than 20% are shown)
Growth Percent (NCI-H522): 91.02%
GI% (HCT-116): 22%
Growth Percent (HCT-116): 77.19%
GI% (SW-620): – (Only GI% higher than 20% are shown)
Growth Percent (SW-620): 91.47%
GI% (SF-295): 42%
Growth Percent (SF-295): 57.85%
GI% (LOX IMVI): 43%
Growth Percent (LOX IMVI): 57.05%
GI% (MALME-3M): – (Only GI% higher than 20% are shown)
Growth Percent (MALME-3M): 101.05%
GI% (M14): – (Only GI% higher than 20% are shown)
Growth Percent (M14): 80.88%
GI% (SK-MEL-5): 28%
Growth Percent (SK-MEL-5): 71.66%
GI% (OVCAR-3): 20%
Growth Percent (OVCAR-3): 79.51%
GI% (OVCAR-5): – (Only GI% higher than 20% are shown)
Growth Percent (OVCAR-5): 95.98%
GI% (OVCAR-8): – (Only GI% higher than 20% are shown)
Growth Percent (OVCAR-8): 81.90%
GI% (NCI/ADR-RES): 24%
Growth Percent (NCI/ADR-RES): 76.55%
GI% (786-0): – (Only GI% higher than 20% are shown)
Growth Percent (786-0): 85.63%
GI% (A498): – (Only GI% higher than 20% are shown)
Growth Percent (A498): 112.03%
GI% (SN12C): 51%
Growth Percent (SN12C): 48.99%
GI% (DU-145): – (Only GI% higher than 20% are shown)
Growth Percent (DU-145): 81.93%
GI% (MCF7): 37%
Growth Percent (MCF7): 63.19%
GI% (BT-549): 41%
Growth Percent (BT-549): 59.16%
GI% (MDA-MB-468): – (Only GI% higher than 20% are shown)
Growth Percent (MDA-MB-468): 108.74%
